SMILES strings stand for the structures. pKi: −log10 of the molar value. Where only a bound is given, the exact number is not on record here.

The target in assay [1] is human GABAA α2β2γ1 receptor (Homo sapiens (Human), UniProt P47869+Q8N1C3). As to the kind of experiment: Radioligand binding assay for γ1-containing GABAA subtypes, [3H]RO7239181 competition (α2β2γ1).
The target in assay [2] is human GABAA α1β3γ2 receptor (Homo sapiens (Human), UniProt P14867+P18507). Briefly: Radioligand binding assay for γ2-containing GABAA subtypes, [3H]Flumazenil competition (α1β3γ2). The following applies: for γ2/γ1 Selectivity Ratio: Ki α1β3γ2 (nM)/Ki α2β2γ1 (nM); for LogSel: Log[Ki α1β3γ2 (nM)/Ki α2β2γ1 (nM)].
The target in assay [3] is human GABAA α5β2γ1 receptor (Homo sapiens (Human), UniProt P31644+Q8N1C3). Briefly: Radioligand binding assay for γ1-containing GABAA subtypes, [3H]RO7239181 competition (α5β2γ1).
For assay [4], the target named is α2β2γ1 GABAA receptor subtype (Homo sapiens (Human), UniProt P47869+Q8N1C3). As to the kind of experiment: Two-electrode voltage clamp electrophysiology in Xenopus oocytes expressing GABAA receptors (modulation of GABA EC20 current). Type of assay: cell-based. The following applies: for Efficacy (GABA)%: % modulation of GABA EC20 = 100*(Fold increase-1), α2β2γ1 oocytes, compound at approx. 30-fold Ki; for Fold increase h-GABA-A α2β2γ1 oocyte @ 30-fold Ki: Xenopus oocytes expressing α2β2γ1, compound at approx. 30-fold its Ki α2β2γ1, GABA EC20 current. The gist of the method: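 Two-electrode voltage clamp at −80 mV, room temperature, 3-5 days after mRNA injection into oocytes. GABA applied at EC20 for 1.5 min, twice, with compound during second application; at least 3 oocytes per concentration. Efficacy = extremum of point-by-point current ratio, expressed as 100×(fold increase−1).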

The mark [5] stands for this setting: Ki h-GABAA α2β2γ1, [3H]RO7239181 competition binding, human GABAA α2β2γ1.
Where [6] appears, read: Ki h-GABAA α2β2γ1, displacement of [3H]RO7239181, membranes of HEK293F cells expressing human receptors, means of two determinations.

In general, pKi refers to −log10 of the Ki, conventionally taken in molar units. High values mean a small Ki, low ones a large Ki. `C[C@@H]1N=C(c2c(F)cccc2F)c2c(ccc(C(F)(F)F)c2Cl)-n2nc(C(=O)NN3CCCC3)nc21` [Example 118, (4S)-7-chloro-6-(2,6-difluorophenyl)-4-methyl-N-pyrrolidin-1-yl-8-(trifluoromethyl)-4H-[1,2,4]triazolo[1,5-a][1,4]benzodiazepine-2-carboxamide] showed a pKi in assay [1] (setting [5]) of 7.61. Further, the pKi in assay [1] (setting [6]) is 7.61. Besides, in assay [2], the pKi was 5.35, the “γ2/γ1 Selectivity Ratio” value is 182.7 and the LogSel stood at 2.26. Moreover, in assay [3], the pKi was 8.38. Further, in assay [4], the “Efficacy (GABA)%” value worked out at 120% and the “Fold increase h-GABA-A α2β2γ1 oocyte @ 30-fold Ki” value came to 2.20.
With `C[C@@H]1N=C(c2ncccc2F)c2c(ccc(C(F)(F)F)c2Cl)-n2nc(C(=O)N3CC4(CCO4)C3)nc21` [Example 119, 1-oxa-6-azaspiro[3.3]heptan-6-yl-[(4S)-7-chloro-6-(3-fluoro-2-pyridyl)-4-methyl-8-(trifluoromethyl)-4H-[1,2,4]triazolo[1,5-a][1,4]benzodiazepin-2-yl]methanone], in assay [1] (setting [5]), the pKi was 7.09. The pKi in assay [1] (setting [6]) was 7.09. Further, in assay [2], the pKi was 4.90, the “γ2/γ1 Selectivity Ratio” value is 156.1 and the LogSel is reported as 2.19. In assay [3], this compound had a negative-log Ki (pKi) of 7.99. In addition, in assay [4], the “Efficacy (GABA)%” value is given as 124% and the “Fold increase h-GABA-A α2β2γ1 oocyte @ 30-fold Ki” value turned out to be 2.24.
Turning to `C[C@@H]1N=C(c2ncccc2F)c2c(ccc(C(F)(F)F)c2Cl)-n2nc(C(=O)N3CC4(CCOC4)C3)nc21` [Example 120, 6-oxa-2-azaspiro[3.4]octan-2-yl-[(4S)-7-chloro-6-(3-fluoro-2-pyridyl)-4-methyl-8-(trifluoromethyl)-4H-[1,2,4]triazolo[1,5-a][1,4]benzodiazepin-2-yl]methanone], the pKi in assay [1] (setting [5]) is 7.09; in assay [1] (setting [6]), 7.09; in assay [2] it was 5.27; in assay [3], 8.07. For the same compound, the “γ2/γ1 Selectivity Ratio” value in assay [2] was determined as 66.3. Further, the LogSel in assay [2] is given as 1.82. Further, the “Efficacy (GABA)%” value in assay [4] is listed as 178%. Further, the “Fold increase h-GABA-A α2β2γ1 oocyte @ 30-fold Ki” value in assay [4] was 2.78.
`C[C@@H]1N=C(c2c(F)cccc2F)c2c(ccc(C(F)(F)F)c2Cl)-n2nc(C(=O)N3CC(C(F)F)C3)nc21` [Example 122, [(4S)-7-chloro-6-(2,6-difluorophenyl)-4-methyl-8-(trifluoromethyl)-4H-[1,2,4]triazolo[1,5-a][1,4]benzodiazepin-2-yl]-[3-(difluoromethyl)azetidin-1-yl]methanone]: the pKi in assay [1] (setting [5]) was 7.97; in assay [1] (setting [6]), 7.97; in assay [2], 5.52; in assay [3], 8.42. Moreover, the “γ2/γ1 Selectivity Ratio” value in assay [2] was found to be 287.8. The LogSel in assay [2] came to 2.46. In addition, in assay [4], the “Efficacy (GABA)%” value is 91%. In addition, the “Fold increase h-GABA-A α2β2γ1 oocyte @ 30-fold Ki” value in assay [4] is on record as 1.91.
For `C[C@@H]1N=C(c2ncccc2F)c2c(ccc(C(F)(F)F)c2Cl)-n2nc(C(=O)N3CC[C@H](F)C3)nc21` [Example 123, [(4S)-7-chloro-6-(3-fluoro-2-pyridyl)-4-methyl-8-(trifluoromethyl)-4H-[1,2,4]triazolo[1,5-a][1,4]benzodiazepin-2-yl]-[(3S)-3-fluoropyrrolidin-1-yl]methanone], the negative logarithm of the Ki (pKi) in assay [1] (setting [5]) was 7.04. Moreover, in assay [1] (setting [6]), the pKi was 7.04. In assay [2], the pKi was below 4.52, the “γ2/γ1 Selectivity Ratio” value is 326.6 and the LogSel is 2.51. Moreover, the pKi in assay [3] is 8.01. In addition, in assay [4], the “Efficacy (GABA)%” value worked out at 162% and the “Fold increase h-GABA-A α2β2γ1 oocyte @ 30-fold Ki” value stood at 2.62.
With `C[C@@H]1N=C(c2ncccc2F)c2c(ccc(C(F)(F)F)c2Cl)-n2nc(C(=O)N3CCS(=O)(=O)CC3)nc21` [Example 124, [(4S)-7-chloro-6-(3-fluoro-2-pyridyl)-4-methyl-8-(trifluoromethyl)-4H-[1,2,4]triazolo[1,5-a][1,4]benzodiazepin-2-yl]-(1,1-dioxo-1,4-thiazinan-4-yl)methanone], in assay [1] (setting [5]), the pKi is 7.58. The same compound gave a pKi in assay [1] (setting [6]) of 7.58. In assay [2], the pKi is 4.84, the “γ2/γ1 Selectivity Ratio” value was determined as 547.2 and the LogSel is reported as 2.74. This compound also had a pKi in assay [3] of 8.20. Besides, in assay [4], the “Efficacy (GABA)%” value came to 145% and the “Fold increase h-GABA-A α2β2γ1 oocyte @ 30-fold Ki” value came out at 2.45.
On to `C[C@@H]1N=C(c2c(F)cccc2F)c2c(ccc(C(F)(F)F)c2Cl)-n2nc(NC(=O)NC3COC3)nc21` [Example 125, 1-[(4S)-7-chloro-6-(2,6-difluorophenyl)-4-methyl-8-(trifluoromethyl)-4H-[1,2,4]triazolo[1,5-a][1,4]benzodiazepin-2-yl]-3-(oxetan-3-yl)urea], for which, in assay [1] (setting [5]), the negative logarithm of the Ki (pKi) is 8.21. In assay [1] (setting [6]), this compound had a pKi of 8.21. In assay [2], the pKi was 5.79, the “γ2/γ1 Selectivity Ratio” value is recorded as 259.0 and the LogSel was 2.41. In assay [3], this compound showed a pKi of 8.77. For the same compound, in assay [4], the “Efficacy (GABA)%” value worked out at 73% and the “Fold increase h-GABA-A α2β2γ1 oocyte @ 30-fold Ki” value was 1.73.
Turning to `C[C@@H]1N=C(c2c(F)cccc2F)c2c(ccc(C(F)(F)F)c2Cl)-n2nc(NC(=O)NC3CC3)nc21` [Example 126, 1-[(4S)-7-chloro-6-(2,6-difluorophenyl)-4-methyl-8-(trifluoromethyl)-4H-[1,2,4]triazolo[1,5-a][1,4]benzodiazepin-2-yl]-3-cyclopropyl-urea], the pKi in assay [1] (setting [5]) was 7.99; in assay [1] (setting [6]), 7.99; in assay [2], 5.34; in assay [3] it was 8.49. For the same compound, the “γ2/γ1 Selectivity Ratio” value in assay [2] came out at 451.4. Moreover, the LogSel in assay [2] came to 2.65. The “Efficacy (GABA)%” value in assay [4] was 38%. Moreover, the “Fold increase h-GABA-A α2β2γ1 oocyte @ 30-fold Ki” value in assay [4] amounted to 1.38.
As for `COC1CN(C(=O)Nc2nc3n(n2)-c2ccc(C(F)(F)F)c(Cl)c2C(c2c(F)cccc2F)=N[C@H]3C)C1` [Example 127, N-[(4S)-7-chloro-6-(2,6-difluorophenyl)-4-methyl-8-(trifluoromethyl)-4H-[1,2,4]triazolo[1,5-a][1,4]benzodiazepin-2-yl]-3-methoxy-azetidine-1-carboxamide], the pKi in assay [1] (setting [5]) is 7.31. In assay [1] (setting [6]), this compound showed a pKi of 7.31. In addition, in assay [2], the negative logarithm of the Ki (pKi) was 5.32, the “γ2/γ1 Selectivity Ratio” value was 96.5 and the LogSel turned out to be 1.98. The negative logarithm of the Ki (pKi) in assay [3] was 8.26. Also, in assay [4], the “Efficacy (GABA)%” value was found to be 112% and the “Fold increase h-GABA-A α2β2γ1 oocyte @ 30-fold Ki” value is on record as 2.12.
With `C[C@@H]1N=C(c2c(F)cccc2F)c2c(ccc(C(F)(F)F)c2Cl)-n2nc(NC(=O)N3CC(F)C3)nc21` [Example 128, N-[(4S)-7-chloro-6-(2,6-difluorophenyl)-4-methyl-8-(trifluoromethyl)-4H-[1,2,4]triazolo[1,5-a][1,4]benzodiazepin-2-yl]-3-fluoro-azetidine-1-carboxamide], the pKi in assay [1] (setting [5]) is 7.46. In assay [1] (setting [6]), this compound had a pKi of 7.46. Moreover, in assay [2], the pKi is 5.41, the “γ2/γ1 Selectivity Ratio” value is given as 111.4 and the LogSel is 2.05. The pKi in assay [3] was 8.38. In assay [4], the “Efficacy (GABA)%” value was 98% and the “Fold increase h-GABA-A α2β2γ1 oocyte @ 30-fold Ki” value is on record as 1.98.
Take `C[C@@H]1N=C(c2c(F)cccc2F)c2c(ccc(C(F)(F)F)c2Cl)-n2nc(NC(=O)N3CCS(=O)(=O)CC3)nc21` [Example 131, N-[(4S)-7-chloro-6-(2,6-difluorophenyl)-4-methyl-8-(trifluoromethyl)-4H-[1,2,4]triazolo[1,5-a][1,4]benzodiazepin-2-yl]-1,1-dioxo-1,4-thiazinane-4-carboxamide]: in assay [1] (setting [5]), the pKi is 7.86. The compound further gave a negative-log Ki (pKi) in assay [1] (setting [6]) of 7.86. Also, in assay [2], the pKi was 5.61, the “γ2/γ1 Selectivity Ratio” value worked out at 176.5 and the LogSel is reported as 2.25. Besides, the negative-log Ki (pKi) in assay [3] is 8.47. In assay [4], the “Efficacy (GABA)%” value was found to be 104% and the “Fold increase h-GABA-A α2β2γ1 oocyte @ 30-fold Ki” value is recorded as 2.04.
`C[C@@H]1N=C(c2c(F)cccc2F)c2c(ccc(C(F)(F)F)c2Cl)-n2c(CO)cnc21` [Example 132, [(4S)-7-chloro-6-(2,6-difluorophenyl)-4-methyl-8-(trifluoromethyl)-4H-imidazo[1,2-a][1,4]benzodiazepin-1-yl]methanol]: the pKi in assay [1] (setting [5]) was 7.47. The compound further gave a pKi in assay [1] (setting [6]) of 7.47. In assay [2], the pKi is 5.59, the “γ2/γ1 Selectivity Ratio” value is on record as 75.8 and the LogSel came to 1.88. Besides, in assay [3], the pKi is 8.58. Besides, in assay [4], the “Efficacy (GABA)%” value came to 105% and the “Fold increase h-GABA-A α2β2γ1 oocyte @ 30-fold Ki” value stood at 2.05.
With `C[C@@H]1N=C(c2c(F)cccc2F)c2c(ccc(C(F)(F)F)c2Cl)-n2c1nc1c2CCC1` [Example 133, (10S)-6-chloro-8-(2,6-difluorophenyl)-10-methyl-5-(trifluoromethyl)-1,9,12-triazatetracyclo[9.6.0.02,7.013,17]heptadeca-2,4,6,8,11,13(17)-hexaene], the negative-log Ki (pKi) in assay [1] (setting [5]) is 7.63. Further, in assay [1] (setting [6]), the negative-log Ki (pKi) was 7.63. In addition, in assay [2], the negative logarithm of the Ki (pKi) was 6.08, the “γ2/γ1 Selectivity Ratio” value was 35.5 and the LogSel is 1.55. In addition, the pKi in assay [3] is 8.28. In addition, in assay [4], the “Efficacy (GABA)%” value was found to be 41% and the “Fold increase h-GABA-A α2β2γ1 oocyte @ 30-fold Ki” value is recorded as 1.41.

The record behind these values is patent US12365687B2 (Hoffmann-La Roche Inc., priority 2021, dated 2025).
